Assay results as given in patent publication US12102672B2, “Immunogenic sequences from a phage tail length tape measure protein, bacteria expressing the same and their use in treating a cancer” (INSTITUT GUSTAVE ROUSSY, priority 2017, dated 2024).
“Also recorded” adds a separate entry of the source.

Key:
colon mucosae = assay: Colon inflammatory infiltrates (HES staining) after E. hirae gavage and CTX; type: in vivo, mice; conditions: for inflammatory infiltrates of colon mucosae: mice without tumor, oral gavages + CTX, versus without commensals
Method: FIG. 11. Effects of EH on gut inflammation and role of CD8+ T cells in this inflammation: EH-specific CTL amplified in the mLN may return into the lamina propria. (A) Experimental setting. […] Then, we performed oral gavage with E. hirae (708 or 13144) and anti-CD8 injection (200 μg per mice) every three days for a total of 4 gavages/injections. 5 days after the first oral gavage, mice are treated with CTX. One week post-CTX, colon is removed for Hematoxylin Eosin Staining (HES). (B) Extent of inflammatory infiltrates in colon of mice colonized with E. hirae and treated with anti-CD8 ablating Abs and CTX.
FIG. 18. […] (A) Experimental setting. […] Then we performed oral gavage with E. hirae (708 or 13144) every three days for a total of 4 gavages. 5 days after the first oral gavage, mice were treated with CTX. One week post-CTX, colons are removed to be embedded in PPFE for Hematoxylin, Eosin and Safran staining (HES). (B) Extent of inflammatory infiltrates in colons of mice bearing MCA205 tumors or not and colonized with E. hirae and treated with CTX. Student t′-test statistical analyses: ** p<0.01.

MCA-205 sarcoma = MCA-205 sarcoma growth in FMT-treated mice, CTX plus oral gavage with E. hirae strains; type: in vivo; conditions: for Anti-tumor effect: summary of the characteristics of the strains, with CTX, MCA205 sarcoma; for CTX-mediated antitumor effects (MCA-205 tumor growth): FMT from BC patient 2 with no overt dysbiosis, oral gavage; for boost of CTX tumoricidal activity (MCA-205 tumor growth): dysbiotic FMT from BC patient, 3 cycles CTX 100 mg/kg, oral gavage 1.10^9 bacteria
Method: FIG. 1. Experimental setting. (A) Mice are treated with broad spectrum antibiotics (streptomycin, colistin, ampicillin and vancomycine) for 3 days before performing Fecal Microbiota Transplantation (FMT). 14 days post-FMT, MCA-205 sarcoma cell lines are inoculated in the right flank of mice (8.10^5 cells per mice). […] (B) Non FMT-treated SPF mice are used as control.
FIG. 2. Dysbiosis by FMT BC patient 1: Effectiveness of E. hirae 13144 to restore CTX-mediated antitumor effects. […] (C) Tumor growth curves of MCA-205 sarcoma in FMT-treated mice after oral gavage with strain E. hirae 13144 or NaCl as control. 2 independent experiments are depicted. (D) Overall survival of FMT-treated, MCA-205 sarcoma bearing mice treated with CTX or NaCl after oral gavage with strain E. hirae 13144. A typical survival curve is depicted for six mice per group. (E) Concatenated data of tumor sizes at day 21 post-CTX from 2 independent experiments are shown.
FIG. 3. […] (C) Tumor growth curves of MCA-205 sarcoma in FMT-treated mice after oral gavage with strain E. hirae 13144 or NaCl as control. 2 independent experiments are depicted. (D) Concatenated data of tumor sizes at day 21 post-CTX from 2 independent experiments are shown.
FIG. 4. […] Tumor growth curves of MCA-205 sarcoma in FMT-treated mice after oral gavage with strain E. hirae 13144 (A), IGR1 (B) or NaCl as control. A typical curve is depicted for six mice per group. (C) Concatenated data of tumor sizes at day 17 post-CTX from 1-2 independent experiments are shown. (D). Comparaison of various strains of E. hirae for their capacity to control tumor growth. […] EH10815 fails to work and that may be related to a mutation residing in TMP2 (see below FIG. 13B).
FIG. 5. […] (A) Tumor surface of MCA-205 sarcoma in FMT-treated mice after oral gavage with strain E. hirae 13144, IGR4, IGR7, Actinomycetes spp (Ao) and injected with 3 cycles of CTX (C) vs NaCl (N). Each dot is one mouse/tumor. (B) Tumor growth curves of MCA-205 sarcoma in SPF mice of the best group, means+SEM of tumor sizes at each time point and tumor sizes at sacrifice (C: CTX). Each dot is one mouse/tumor. Anova statistics indicating significant differences between CTX and the triple combination. (C) Tumor surface of MCA-205 sarcoma in FMT-treated mice after oral gavage with strains EH13144, IGR1, IGR11, Barnesiella or Akkermansia and injected with 3 cycles of CTX. Bacterial strains are used alive (V) or pasteurized (P). For pasteurization, bacteria are incubated 30 min at 70° C. and frozen at −80° C. at least 6 hours.
FIG. 6. […] Tumor growth curves of MCA-205 sarcoma in FMT-treated mice after oral gavage with strain E. hirae 13144 alive (A), pasteurized (B) or NaCl as control. A typical curve is depicted for six mice per group. (C) Concatenated data of tumor sizes at day 17 post-CTX from 3 independent experiments are shown.

E. gallinarum = assay: Phage transmission from E. hirae to E. gallinarum in small intestine enteroids; parameters: species or system Enterococcus gallinarum; conditions: 1:1 ratio E. hirae / E. gallinarum on enteroids
From the text: . […] Also refer to FIG. 39.
Temperate bacteriophages are bacterial viruses that transfer virulence, antimicrobial resistance genes, and immunogenic sequences to new bacterial hosts (Weinbauer, 2004). The TMP protein, which contains a variable number of tandem repeats with highly conserved tryptophan and phenylalanine residues at fixed positions is encoded by the genome of Siphoviridae phages (Belcaid et al., 2011; Piuri and Hatfull, 2006). To analyze the capacity of E. hirae 13144 to contagiously disseminate the phage TMP sequence, we performed culturomic analyses of the ileal content from C57BL/6 mice subjected to oral gavage with E. hirae 13144 and systemic CTX therapy (FIG. 30C). […] Of note, none of the 90 colonies (mostly of E. gallinarum) isolated from naive mice harbored the TMP sequence (FIG. 39). Moreover, CTX plays a role in eliminating the E. gallinarum, allowing the niching and/or colonization of E. hirae in the small intestine, as shown in vitro in enteroid systems or in PCR of the ileal content (FIG. 30G and not shown). Importantly, incubation of small intestine enteroids with a balanced 1:1 ratio of E. hirae or E. gallinarum harbouring or not the phage respectively, lead to the transmission of the infectious/lytic phage to E. gallinarum by E. hirae in 9% of colonies at 6 hrs and 26% at 20 hrs (FIG. 30G).

| Substance | inflammatory infiltrates of colon mucosae (colon mucosae) | Anti-tumor effect (MCA-205 sarcoma) | colon inflammatory lesions in tumor bearers (colon mucosae; mice bearing MCA205 sarcoma versus naive, listed as E. hirae 13144) | CTX-mediated antitumor effects (MCA-205 tumor growth) (MCA-205 sarcoma; listed as E. hirae 13144) | CTX-mediated antitumor effects (MCA-205 tumor growth) (MCA-205 sarcoma; listed as EH13144) | boost of CTX tumoricidal activity (MCA-205 tumor growth) (MCA-205 sarcoma; listed as E. hirae 13144) | boost of CTX tumoricidal activity (MCA-205 tumor growth) (MCA-205 sarcoma; listed as EH13144) | colonies of E. gallinarum with transmitted phage (E. gallinarum; 6 hrs) | colonies of E. gallinarum with transmitted phage (E. gallinarum; 20 hrs) |
| --- | --- | --- | --- | --- | --- | --- | --- | --- | --- |
| Enterococcus hirae 708 [Peptide 708, reference compound] | more infiltrated | No |  |  |  |  |  |  |  |
| Enterococcus hirae strain 13144 [Peptide 13144] | more infiltrated | Yes | markedly reduced; also recorded: prevents the gut inflammatory lesions | ameliorates the CTX-mediated antitumor effects | significant | only when used alive | very effective at restoring the efficacy | 9% | 26% |
